# Test results as given in patent publication US8524715B2, “Phenoxyacetic acid derivatives useful for treating respiratory diseases” (Astrazeneca AB, priority 2004, dated 2013).
# Biological target: T1, rhCRTh2 (Homo sapiens, UniProt Q9Y5Y4)
# T1 construct: expressed in transfected cells; host or cells: HEK cells (membrane preparation)
# T1 sequence (Q9Y5Y4 1-395): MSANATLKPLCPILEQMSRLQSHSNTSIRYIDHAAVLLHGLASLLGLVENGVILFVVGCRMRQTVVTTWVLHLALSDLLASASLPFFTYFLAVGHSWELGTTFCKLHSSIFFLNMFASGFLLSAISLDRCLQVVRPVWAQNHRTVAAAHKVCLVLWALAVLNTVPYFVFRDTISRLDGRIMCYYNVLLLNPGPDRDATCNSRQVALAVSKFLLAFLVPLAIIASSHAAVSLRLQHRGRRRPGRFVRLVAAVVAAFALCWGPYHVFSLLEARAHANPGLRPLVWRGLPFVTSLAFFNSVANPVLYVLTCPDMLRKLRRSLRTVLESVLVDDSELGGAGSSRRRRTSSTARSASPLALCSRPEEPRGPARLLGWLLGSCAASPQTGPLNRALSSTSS
# Assay: Ligand Binding Assay ([3H]PGD2 SPA binding)
# Conditions: [3H]PGD2 binding, membranes of HEK cells expressing rhCRTh2/Gα16, SPA beads, 2 hours room temperature; read-out: pIC50 value (converted)
# Method: [^3H]PGD2 was purchased from Perkin Elmer Life Sciences with a specific activity of 100-210 Ci/mmol. All other chemicals were of analytical grade.
# HEK cells expressing rhCRTh2/Gα16 were routinely maintained in DMEM containing 10% Foetal Bovine Serum (HyClone), 1 mg/ml geneticin, 2 mM L-glutamine and 1% non-essential amino acids. For the preparation of membranes, the adherent transfected HEKcells were grown to confluence in two layer tissue culture factories (Fisher, catalogue number TKT-170-070E). Maximal levels of receptor expression were induced by addition of […] sodium butyrate for the last 18 hours of culture. The adherent cells were washed once with phosphate buffered saline (PBS, 50 ml per cell factory) and detached by the addition of 50 ml 0.1 mM dithiothreitol, 1 mM EDTA, 0.1 mM phenyl methyl sulphonyl fluoride and 100 μg/ml bacitracin]. Cells were pelleted by centrifugation at 220×g for 10 minutes at 4° C., re-suspended in half the original volume of fresh membrane homogenisation buffer and disrupted using a Polytron homogeniser for 2×20 second bursts keeping the tube in ice at all times. Unbroken cells were removed by centrifugation at 220×g for 10 minutes at 4° C. and the membrane fraction pelleted by centrifugation at 90000×g for 30 minutes at 4° C. The final pellet was re-suspended in 4 ml of membrane homogenisation buffer per cell factory used and the protein content determined. Membranes were stored at −80° C. in suitable aliquots.
# All assays were performed in Corning clear bottomed, white 96-well NBS plates (Fisher). Prior to assay, the HEK cells membranes containing CRTh2 were coated onto SPA PVT WGA beads (Amersham). For coating membranes were incubated with beads at typically 25 μg membrane protein per mg beads at 4° C. with constant agitation overnight. (The optimum coating concentrations were determined for each batch of membranes) The beads were pelleted by centrifugation (800×g for 7 minutes at 4° C.), washed once with assay buffer (50 mM HEPES pH 7.4 containing 5 mM magnesium chloride) and finally re-suspended in assay buffer at a bead concentration of 10 mg/ml.
# Each assay contained 20 μl of 6.25 nM [^3H]PGD2, 20 μl membrane saturated SPA beads both in assay buffer and 10 μl of compound solution or 13,14-dihydro-15-keto prostaglandin D2 (DK-PGD2, for determination of non-specific binding, Cayman chemical company).
# Compounds and DK-PGD2 were dissolved in DMSO and diluted in the same solvent to 100× the required final concentration. […] The assay plate was incubated at room temperature for 2 hours and counted on a Wallac Microbeta liquid scintillation counter (1 minute per well).
row,Structure (SMILES),IC50 [nM]
1,"O=C(O)COc1ccc(C(F)(F)F)cc1CN1CCN(C(=O)Cc2cccs2)CC1 [Example 42, [2-[[4-(2-thienylacetyl)-1-piperazinyl]methyl]-4-(trifluoromethyl)phenoxy]-acetic Acid]",132
2,"CC1CN(Cc2cc(Cl)ccc2OCC(=O)O)CCN1S(=O)(=O)c1ccccc1 (stereo not shown) [example 57, [4-Chloro-2-[[3-methyl-4-(phenylsulfonyl)-1-piperazinyl]methyl]phenoxy]acetic Acid]",5.01
3,"C[C@H]1CN(Cc2cc(Cl)ccc2OCC(=O)O)CCN1C(=O)Cc1cccc(F)c1 [example 91, [4-chloro-2-[[(3S)-4-[(3-fluorophenyl)acetyl]-3-methyl-1-piperazinyl]methyl]phenoxy]-acetic Acid]",15.8
4,"O=C(O)COc1ccc(C(F)(F)F)cc1CN1CCCN(S(=O)(=O)c2ccc(F)cc2)CC1 [example 7, [2-[[4-[(4-fluorophenyl)sulfonyl]hexahydro-1H-1,4-diazepin-1-yl]methyl]-4-(trifluoromethyl)phenoxy]-acetic acid]",89.1
